Reference: patent US8192962B2, “Processes for detecting toxic substances” (Daikin Industries, Ltd., priority 2001, dated 2012)

Tested on: Transport facilitation protein genes
Test: DNA chip mRNA expression in yeast, transport facilitation protein genes (Table 5)
Assay type: cell-based, Saccharomyces cerevisiae S288C
In short: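 Cells were grown at 25° C. in YPD, treated at logarithmic phase for 2 h with a chemical at a concentration inhibiting growth but not causing death, and compared with untreated cultures. Labeled cDNA was hybridized to a DNA chip carrying all yeast genes, and the expression ratio was taken from scanner fluorescence.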

CCCCCCCCCCCCc1ccc(S(=O)(=O)[O-])cc1.[Na+] [(17), sodium dodecylbenzosulfonate]
The level of expressed mRNA in the presence of chemical substance/The level of expressed mRNA in the absence of chemical substance (yeast gene YBL030C): 1.0
The level of expressed mRNA in the presence of chemical substance/The level of expressed mRNA in the absence of chemical substance (yeast gene YBL099W): 0.7
The level of expressed mRNA in the presence of chemical substance/The level of expressed mRNA in the absence of chemical substance (yeast gene YBR052C): 1.8
The level of expressed mRNA in the presence of chemical substance/The level of expressed mRNA in the absence of chemical substance (yeast gene YBR068C): 1.1
The level of expressed mRNA in the presence of chemical substance/The level of expressed mRNA in the absence of chemical substance (yeast gene YBR127C): 0.8
The level of expressed mRNA in the presence of chemical substance/The level of expressed mRNA in the absence of chemical substance (yeast gene YBR132C): 1.1
The level of expressed mRNA in the presence of chemical substance/The level of expressed mRNA in the absence of chemical substance (yeast gene YBR207W): 1.2
The level of expressed mRNA in the presence of chemical substance/The level of expressed mRNA in the absence of chemical substance (yeast gene YBR293W): 1.0
The level of expressed mRNA in the presence of chemical substance/The level of expressed mRNA in the absence of chemical substance (yeast gene YBR294W): 1.0
The level of expressed mRNA in the presence of chemical substance/The level of expressed mRNA in the absence of chemical substance (yeast gene YBR295W): 1.3
The level of expressed mRNA in the presence of chemical substance/The level of expressed mRNA in the absence of chemical substance (yeast gene YBR298C): 0.9
The level of expressed mRNA in the presence of chemical substance/The level of expressed mRNA in the absence of chemical substance (yeast gene YCL025C): 0.6
The level of expressed mRNA in the presence of chemical substance/The level of expressed mRNA in the absence of chemical substance (yeast gene YCL038C): 1.4
The level of expressed mRNA in the presence of chemical substance/The level of expressed mRNA in the absence of chemical substance (yeast gene YCR024C-A): 0.9
The level of expressed mRNA in the presence of chemical substance/The level of expressed mRNA in the absence of chemical substance (yeast gene YCR037C): 1.4
The level of expressed mRNA in the presence of chemical substance/The level of expressed mRNA in the absence of chemical substance (yeast gene YCR098C): 1.7
The level of expressed mRNA in the presence of chemical substance/The level of expressed mRNA in the absence of chemical substance (yeast gene YDL128W): 0.9
The level of expressed mRNA in the presence of chemical substance/The level of expressed mRNA in the absence of chemical substance (yeast gene YDL198C): 1.5
The level of expressed mRNA in the presence of chemical substance/The level of expressed mRNA in the absence of chemical substance (yeast gene YDL210W): 1.1
The level of expressed mRNA in the presence of chemical substance/The level of expressed mRNA in the absence of chemical substance (yeast gene YDL245C): 1.0
The level of expressed mRNA in the presence of chemical substance/The level of expressed mRNA in the absence of chemical substance (yeast gene YDR038C): 1.3
The level of expressed mRNA in the presence of chemical substance/The level of expressed mRNA in the absence of chemical substance (yeast gene YDR039C): 1.1
The level of expressed mRNA in the presence of chemical substance/The level of expressed mRNA in the absence of chemical substance (yeast gene YDR086C): 1.4
The level of expressed mRNA in the presence of chemical substance/The level of expressed mRNA in the absence of chemical substance (yeast gene YDR270W): 0.9
The level of expressed mRNA in the presence of chemical substance/The level of expressed mRNA in the absence of chemical substance (yeast gene YDR298C): 1.1
The level of expressed mRNA in the presence of chemical substance/The level of expressed mRNA in the absence of chemical substance (yeast gene YDR342C): 1.0
The level of expressed mRNA in the presence of chemical substance/The level of expressed mRNA in the absence of chemical substance (yeast gene YDR343C): 1.1
The level of expressed mRNA in the presence of chemical substance/The level of expressed mRNA in the absence of chemical substance (yeast gene YDR345C): 1.3
The level of expressed mRNA in the presence of chemical substance/The level of expressed mRNA in the absence of chemical substance (yeast gene YDR387C): 1.2
The level of expressed mRNA in the presence of chemical substance/The level of expressed mRNA in the absence of chemical substance (yeast gene YDR497C): 1.6
The level of expressed mRNA in the presence of chemical substance/The level of expressed mRNA in the absence of chemical substance (yeast gene YEL027W): 1.0
The level of expressed mRNA in the presence of chemical substance/The level of expressed mRNA in the absence of chemical substance (yeast gene YEL063C): 0.7
The level of expressed mRNA in the presence of chemical substance/The level of expressed mRNA in the absence of chemical substance (yeast gene YEL065W): 0.7
The level of expressed mRNA in the presence of chemical substance/The level of expressed mRNA in the absence of chemical substance (yeast gene YER053C): 1.2
The level of expressed mRNA in the presence of chemical substance/The level of expressed mRNA in the absence of chemical substance (yeast gene YFL011W): 0.8
The level of expressed mRNA in the presence of chemical substance/The level of expressed mRNA in the absence of chemical substance (yeast gene YFL041W): 1.1
The level of expressed mRNA in the presence of chemical substance/The level of expressed mRNA in the absence of chemical substance (yeast gene YFL050C): 0.8
The level of expressed mRNA in the presence of chemical substance/The level of expressed mRNA in the absence of chemical substance (yeast gene YFL054C): 1.7
The level of expressed mRNA in the presence of chemical substance/The level of expressed mRNA in the absence of chemical substance (yeast gene YGL006W): 2.4
The level of expressed mRNA in the presence of chemical substance/The level of expressed mRNA in the absence of chemical substance (yeast gene YGL008C): 1.1
The level of expressed mRNA in the presence of chemical substance/The level of expressed mRNA in the absence of chemical substance (yeast gene YGL104C): 1.3
The level of expressed mRNA in the presence of chemical substance/The level of expressed mRNA in the absence of chemical substance (yeast gene YGL167C): 1.4
The level of expressed mRNA in the presence of chemical substance/The level of expressed mRNA in the absence of chemical substance (yeast gene YGL255W): 0.6
The level of expressed mRNA in the presence of chemical substance/The level of expressed mRNA in the absence of chemical substance (yeast gene YGR055W): 0.7
The level of expressed mRNA in the presence of chemical substance/The level of expressed mRNA in the absence of chemical substance (yeast gene YGR065C): 0.7
The level of expressed mRNA in the presence of chemical substance/The level of expressed mRNA in the absence of chemical substance (yeast gene YGR082W): 0.9
The level of expressed mRNA in the presence of chemical substance/The level of expressed mRNA in the absence of chemical substance (yeast gene YGR096W): 0.8
The level of expressed mRNA in the presence of chemical substance/The level of expressed mRNA in the absence of chemical substance (yeast gene YGR138C): 0.7
The level of expressed mRNA in the presence of chemical substance/The level of expressed mRNA in the absence of chemical substance (yeast gene YGR191W): 0.8
The level of expressed mRNA in the presence of chemical substance/The level of expressed mRNA in the absence of chemical substance (yeast gene YGR197C): 1.7
